The record followed here is patent publication US5262521A (SRI International, priority 1991, dated 1993).

Data set [1] concerns atrial peptide-degrading enzyme (ADE). In words: pooled fractions from the Dynamax HPLC ion exchange, or Sephacryl S-200 columns (ADE isolated from bovine kidney cortex). The settings on record: 37° C., up to two hours.
The test system is the same in data set [2]. In words: Degradation of peptide substrates by atrial peptide-degrading enzyme preparation (HPLC). It counts as biochemical, bovine. The settings on record: 50 μM substrate, 37° C.
Method: (c.) ADE Substrate and Inhibitor Studies: To study substrate selectivity of the atrial peptide-degrading enzyme, the pooled fractions from the Dynamax HPLC ion exchange, or Sephacryl S-200 columns, were incubated with 50 μM synthetic substrate and incubated at 37° C. for one or two hours. At the appropriate time, the samples were boiled, centrifuged and analyzed on the Vydac column as described above. The amount of substrate present after the incubation, as determined by integration of the HPLC peak, was compared with the initial substrate level.
The target in data set [3] is atrial peptide-degrading enzyme (ADE). The experiment in a line: Inhibition of ADE activity (AcAPI production from 50 μM AcAPII, HPLC). The format is biochemical, bovine. The settings on record: Table 10. As for the experimental part: The concentration of enzyme and AcAPII were chosen so that approximately 80% of the AcAPII was degraded in the absence of inhibitor. The production of AcAPI was determined by integration of the AcI peak, and percent inhibition by the inhibitors was calculated.
(e.) Enzyme Inhibitor Testing: To further characterize ADE, the extent of inhibition by several known peptidase inhibitors was determined.

Data set [4] concerns spontaneously hypertensive rats. In words: Blood pressure and heart rate measurements in spontaneously hypertensive rats. The arrangement: Diastolic Blood Pressure, Mean Change From Control: unit not given here. It counts as in vivo, rat. As for the experimental part: This experiment was carried out to evaluate the effects of an ADE inhibitor compound of the invention upon blood pressure (systolic and diastolic) and heart rate in spontaneously hypertensive rats ("SHR"). Twenty-eight male SHR, weighing 200-300 g at the initiation of study, having a systolic blood pressure of 160 mm Hg or higher, and obtained from Charles River Laboratories (Wilmington, Mass.), were tested over a nine-day period. The animal room environment and photoperiod were controlled (temperature approximately 22° C.±3° C., humidity of 40 to 70%, 12 h light, 12 h dark), as was diet.
The compounds to be administered (compound (V), above, and rat ANF ("rANF")) were dissolved in a 0.9% saline solution and administered intravenously. The test animals were divided into seven distinct groups for purposes of dose administration, as follows:
Group 1. Four SHR rats were infused with 100 pmole/minute of RANF (0.026 ml/minute) for 20 minutes.
Group 2. Four SHR rats were administered an i.v. bolus of 2 mg/kg of compound (V).
Group 3. Four SHR rats were administered an i.v. bolus of 10 mg/kg of compound (V).
Group 4. Four SHR rats were infused with 0.2 mg/kg/min of compound (V) (0.026 ml/minute) for 20 minutes.
Group 5. Four SHR rats were administered an i.v. bolus of 2 mg/kg of compound (V) and then infused with 100 pmole/minute of RANF (0.026 ml/minute for 20 minutes.
Group 6. Four SHR rats were administered an i.v. bolus of 10 mg/kg of compound (V) and then infused with 100 pmole/minute of RANF (0.026 ml/minute) for 20 minutes.
Group 7. Four SHR rats were infused with 0.2 mg/kg/min of compound (V) (0.026 ml/minute) for 20 minutes and then infused with 100 pmole/minute of RANF ([…]) for 20 minutes.
Blood pressure and heart rate determinations were made at 5 minute intervals for 20 minutes prior to dose and at 5 minute intervals for a minimum of 40 minutes following the initiation of test article administration or until a return to control values was realized. Blood pressure was measured continuously for one minute using a Statham P23Db pressure transducer (Statham Instruments, Hata Rey, Puerto Rico), and a Grass Model 7 Polygraph (Glass Instrument Company, Quincy, Mass.). Heart rate was measured using a Narco biotachometer BT-1200 (Narco Biosystems, Houston, Tex.).

[5] abbreviates: (V) 20 min. infusion 0.2 mg/kg/min. i.v., interval 0 min.
Where [6] appears, read: (V) 20 min. infusion 0.2 mg/kg/min. i.v., interval 5 min.
Where [7] appears, read: (V) 20 min. infusion 0.2 mg/kg/min. i.v., interval 10 min.
Where [8] appears, read: (V) 20 min. infusion 0.2 mg/kg/min. i.v., interval 15 min.
Where [9] appears, read: (V) 20 min. infusion 0.2 mg/kg/min. i.v., interval 20 min.
[10] abbreviates: (V) 20 min. infusion 0.2 mg/kg/min. i.v., interval 25 min.
The mark [11] stands for this setting: (V) 20 min. infusion 0.2 mg/kg/min. i.v., interval 30 min.
Where [12] appears, read: (V) 20 min. infusion 0.2 mg/kg/min. i.v., interval 35 min.
Setting [13] is: (V) 20 min. infusion 0.2 mg/kg/min. i.v., interval 40 min.
The mark [14] stands for this setting: (V) bolus injection 2 mg/kg i.v., interval 0 min.
[15] abbreviates: (V) bolus injection 2 mg/kg i.v., interval 5 min.
Setting [16] is: (V) bolus injection 2 mg/kg i.v., interval 10 min.
[17] abbreviates: (V) bolus injection 2 mg/kg i.v., interval 15 min.
Where [18] appears, read: (V) bolus injection 2 mg/kg i.v., interval 20 min.
Where [19] appears, read: (V) bolus injection 2 mg/kg i.v., interval 25 min.
[20] abbreviates: (V) bolus injection 2 mg/kg i.v., interval 30 min.
The mark [21] stands for this setting: (V) bolus injection 2 mg/kg i.v., interval 35 min.
Where [22] appears, read: (V) bolus injection 2 mg/kg i.v., interval 40 min.
The mark [23] stands for this setting: (V) bolus injection 10 mg/kg i.v., interval 0 min.
The mark [24] stands for this setting: (V) bolus injection 10 mg/kg i.v., interval 5 min.
Setting [25] is: (V) bolus injection 10 mg/kg i.v., interval 10 min.
The mark [26] stands for this setting: (V) bolus injection 10 mg/kg i.v., interval 15 min.
Setting [27] is: (V) bolus injection 10 mg/kg i.v., interval 20 min.
Where [28] appears, read: (V) bolus injection 10 mg/kg i.v., interval 25 min.
Where [29] appears, read: (V) bolus injection 10 mg/kg i.v., interval 30 min.
Where [30] appears, read: (V) bolus injection 10 mg/kg i.v., interval 35 min.
Setting [31] is: (V) bolus injection 10 mg/kg i.v., interval 40 min.
[32] abbreviates: (V) bolus injections at 2 and 10 mg/kg.
Where [33] appears, read: (V) infusion 0.2 mg/kg/minute for 20 minutes.

Where a SMILES comes first, the peptide text is derived from it. Where no end group is shown, it is not given here. [ ]: non-standard residue; d: D form. The star is where a group is joined. Boc = CC(C)(C)OC(=O)* Bounds are passed on as bounds.

Asn--Ser--Phe--Arg--Tyr: the not cleaved in data set [1] is 8% degraded.
In the case of `CC(C)C[C@H](NC(=O)CNC(=O)[C@H](Cc1ccc(O)cc1)NC(=O)[C@H](CO)NC(=O)[C@H](Cc1c[nH]c2ccccc12)NC(=O)[C@H](Cc1c[nH]cn1)NC(=O)[C@@H]1CCC(=O)N1)C(=O)N[C@@H](CCCNC(=N)N)C(=O)N1CCC[C@H]1C(=O)NCC(N)=O` [LHRH, pGlu--His--Trp--Ser--Tyr--Gly--Leu--Arg--Pro--Gly-NH2], the “% Degraded 1 h” value in data set [2] is given as 0%.
Boc-Asn-Ser-Phe-OMe returned a not cleaved in data set [1] of 0% degraded.
For the compound `COC(=O)[C@H](Cc1ccccc1)NC(=O)[C@H](CO)NC(=O)[C@H](CC(N)=O)NC(=O)OC(C)(C)C` [Boc--Asn--Ser--Phe--OCH3] (Boc-Asn-Ser-Phe-OMe), the “% Degraded (small peptides)” value in data set [2] (one or two hours) is listed as 0%.
As to “ANF: atrial natriuretic factor, carboxy terminal 28 amino acid fragment of α-ANF”, the “% Degraded 1 h” value in data set [2] is reported as more than 95%.
For the compound LYKKIIKKLLES, in data set [1], the not cleaved was found to be 0% degraded at 2 h.
As to “API: rat atriopeptin I, atrial peptide prepared by solid phase synthesis (SSCFGGRIDRIGAQSGLGCNS; ends and bridges not checked; cysteine pairing not given here; UniProt P01161 127-147, looked up)”, in data set [2], the “% Degraded 1 h” value came out at 0%. The “% Degraded 2 h” value in data set [2] (2 h) stood at 0%.
On to “pGlu--His--Trp--Ser--Tyr--Gly--Leu--Arg--Pro--Gly-NH2”, for which, in data set [1], the not cleaved is listed as 0% degraded at 1 h.
In data set [3], `CC(C)C[C@H](NC(=O)[C@@H](N)CO)C(=O)N[C@@H](CCCNC(=N)N)C(=O)N[C@@H](CCCNC(=N)N)C(=O)N[C@@H](CO)C(=O)N[C@@H](CO)C(=O)N[C@H](C)C(=O)NCC(=O)N[C@H](C)C(=O)N[C@@H](CC(N)=O)C(=O)N[C@@H](CS)C(=O)N[C@H](Cc1ccccc1)C(=O)N[C@@H](CCCNC(=N)N)C(=O)N[C@@H](Cc1ccc(O)cc1)C(N)=O` [(V), Ser-Leu-Arg-Arg-Ser-Ser-DAla-Gly-DAla-Asn-Cys-DPhe-Arg-Tyr-NH2] (H-SLRRSS[dA]G[dA]NC[dF]RY-NH2) registered an IC50 of 14.5 µM. Also, the “% Inhibition At 0.1 mM” value in data set [3] (0.1 mM) came to 81%. Further, the “Diastolic Blood Pressure, Mean Change From Control” value in data set [4] (setting [5]) is recorded as -4; in data set [4] (setting [6]) it was -12; in data set [4] (setting [7]), -15; in data set [4] (setting [8]), -18; in data set [4] (setting [9]), -20; in data set [4] (setting [10]), -13. Also, the “Diastolic Blood Pressure, Mean Change From Control” value in data set [4] (setting [11]) is -14; in data set [4] (setting [12]) it was 0; in data set [4] (setting [13]), -2; in data set [4] (setting [14]) it was -61; in data set [4] (setting [15]), -40; in data set [4] (setting [16]), -14. Moreover, the “Diastolic Blood Pressure, Mean Change From Control” value is -8 in data set [4] (setting [17]); -10 in data set [4] (setting [18]); “+1” in data set [4] (setting [19]); “+5” in data set [4] (setting [20]); “+7” in data set [4] (setting [21]); 0 in data set [4] (setting [22]). Besides, the “Diastolic Blood Pressure, Mean Change From Control” value in data set [4] (setting [23]) is reported as -66; in data set [4] (setting [24]), -76; in data set [4] (setting [25]), -61; in data set [4] (setting [26]) it was -55; in data set [4] (setting [27]), -35; in data set [4] (setting [28]) it was -27. For the same compound, the entries for the “Diastolic Blood Pressure, Mean Change From Control” value in data set [4] (setting [29]), in data set [4] (setting [30]) and in data set [4] (setting [31]) were -17, -15 and “+10”, respectively. Also, the “Systolic Blood Pressure, Mean Change From Control” value is -1 in data set [4] (setting [5]); -10 in data set [4] (setting [6]); -18 in data set [4] (setting [7]); -16 in data set [4] (setting [8]); -26 in data set [4] (setting [9]); -16 in data set [4] (setting [10]). Further, the “Systolic Blood Pressure, Mean Change From Control” value is on record as -9 in data set [4] (setting [11]); 0 in data set [4] (setting [12]); “+5” in data set [4] (setting [13]); -80 in data set [4] (setting [14]); -50 in data set [4] (setting [15]); -30 in data set [4] (setting [16]). Besides, the “Systolic Blood Pressure, Mean Change From Control” value is listed as -14 in data set [4] (setting [17]); -13 in data set [4] (setting [18]); -4 in data set [4] (setting [19]); “+1” in data set [4] (setting [20]); “+2” in data set [4] (setting [21]); “+4” in data set [4] (setting [22]). Further, the “Systolic Blood Pressure, Mean Change From Control” value in data set [4] (setting [23]) is -76; in data set [4] (setting [24]), -119; in data set [4] (setting [25]) it was -100; in data set [4] (setting [26]), -84; in data set [4] (setting [27]), -55; in data set [4] (setting [28]), -41. In addition, the “Systolic Blood Pressure, Mean Change From Control” value in data set [4] (setting [29]) was -29; in data set [4] (setting [30]), -21; in data set [4] (setting [31]), “+9”. Further, the “Duration of the blood pressure lowering following administration” value in data set [4] ((V) bolus 2 mg/kg) was 20 min; in data set [4] ((V) bolus 10 mg/kg) it was 35 min. The “Effect on systolic and diastolic blood pressure, in words” value in data set [4] (setting [32]) was “Dose-related decreases in systolic and diastolic blood pressure”; in data set [4] (setting [33]) it was “minimal decreases in systolic and diastolic blood pressure”. The “Effect upon heart rate” value in data set [4] (setting [32]) and in data set [4] (setting [33]) was “No effects upon heart rate” in each case. For the same compound, the “Duration of blood pressure decrease following the conclusion of the dose” value in data set [4] (setting [33]) is 10 min.
In the case of DVNTDRPG, the not cleaved in data set [1] is 4% degraded at 1 h, 6% degraded at 2 h.
In data set [1], Hip--Ser--Phe--Arg returned a not cleaved of 0% degraded.
